From patent EP1026165A1, “O-substituted Hydroxycoumaranone derivatives as antitumor and antimetastatic agents” (Roche Diagnostics GmbH, priority 1999, dated 2000)

Target: uPAR (Homo sapiens, UniProt Q03405)
Test: BIO-R4 assay (ELISA test): inhibition of uPA binding to its specific receptor uPAR
Conditions: Inhibition of uPA binding to the specific uPAR receptor (BIO-R4); detection at 405 nm
Method: The compounds of the invention were tested (ELISA test) as inhibitors of human urokinase (uPA) binding to its specific receptor uPAR mAk (BIO-R4), according to the procedure described in Biol. Chem. Hoppe-Seyler, 376, 587-94 (1995) by Rettenberger et al. The assays are performed in Microtiterplates (96 wells). The following solutions are used: • washing buffer: PBS-buffer (without Mg^2+ and Ca^2+) + 0.05% Tween 20; • incubation buffer (IP): 1% skimmed milk powder in PBS-buffer (without Mg^2+ and Ca^2+); • BIO-R4 solution: 50 ng/well (0.5 µg/ml 100 µl/well) in IP; • uPAR solution: 3 ng/well (30 ng/ml; 100 µl/well) in PBS-buffer (without Mg^2+ and Ca^2+); • blocking solution: 1% skimmed milk powder in washing buffer (dissolved at 37°C); • uPA solution: 0.25 ng/well (5 ng/ml; 50 µl/well) in IP.
Detection solutions (per microtiterplate):
• (1) 6 ml (100 mM Tris-Cl pH 7.2 + 0.15% Tween 80) + 1.5 ml (10 µg) plasminogen in aqua bidest; • (2) 6 ml (100 mM Tris-Cl pH 7.2 + 0.15% Tween 80) + 1.5 ml (7.5 mg) chromozyme PL in aqua bidest. […]
For detection, the following procedure is used: Incubation with 50 µl each of detection solution (1) and (2) at room temperature. After 20 minutes a yellow colour will be visible (the positive control reads an extinction of 1 after 45-60 minutes). The detection is performed at 405 nm (reference is 490 nm) using a Dynatech MR 7000 ELISA reader. […]

uPAR, sequence (Q03405 23-305 limits assumed): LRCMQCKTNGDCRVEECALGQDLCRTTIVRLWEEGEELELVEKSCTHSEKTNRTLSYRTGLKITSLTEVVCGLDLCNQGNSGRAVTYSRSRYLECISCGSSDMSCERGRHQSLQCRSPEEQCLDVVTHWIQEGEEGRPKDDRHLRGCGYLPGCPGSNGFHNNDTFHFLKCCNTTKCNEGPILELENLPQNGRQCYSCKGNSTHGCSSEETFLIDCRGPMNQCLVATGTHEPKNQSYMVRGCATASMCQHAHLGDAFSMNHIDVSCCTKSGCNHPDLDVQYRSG

IC50 [nM]	SMILES
1790	CC(C)=C1Oc2cccc(OCC#CCN3CCC(NC(=O)c4ccc(Cl)c(S(N)(=O)=O)c4)CC3)c2C1=O [Example 4, 4-{4-[4-(3-aminosulfonyl-4-chlorobenzamido)piperidino]but-2-ynoxy}-2-isopropylidenecoumaran-3-one]
1410	CC(C)=C1Oc2cccc(OCc3cccc(CN4CCC(NC(=O)c5ccc(Cl)c(Cl)c5)CC4)c3)c2C1=O [Example 11, 4-{3-[4-(3,4-dichlorobenzamido)piperidinomethyl]phenylmethoxy}-2-isopropylidenecoumaran-3-one]
